Source: PubChem BioAssay (NCI)
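A five-concentration, 48-hour dose response in 96-well plates underlies each endpoint, interpolated linearly between surrounding concentrations. TGI is the concentration that stops growth completely.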

How the values were obtained:
Test in all cases: growth of human tumour cells (NCI), 48 h
786-0 renal = test system: 786-0 renal
A498 renal = test system: A498 renal
A549 NSCLC = test system: A549 NSCLC
ACHN renal = test system: ACHN renal
BT-549 breast = test system: BT-549 breast
CAKI-1 renal = test system: CAKI-1 renal
CCRF-CEM leukemia = test system: CCRF-CEM leukemia
COLO 205 colon = test system: COLO 205 colon
DU-145 prostate = test system: DU-145 prostate
EKVX NSCLC = test system: EKVX NSCLC
HCC-2998 colon = test system: HCC-2998 colon
HCT-116 colon = test system: HCT-116 colon
HCT-15 colon = test system: HCT-15 colon
HL-60(TB) leukemia = test system: HL-60(TB) leukemia
HOP-62 NSCLC = test system: HOP-62 NSCLC
HOP-92 NSCLC = test system: HOP-92 NSCLC
HS 578T breast = test system: HS 578T breast
HT29 colon = test system: HT29 colon
IGROV1 ovarian = test system: IGROV1 ovarian
K-562 leukemia = test system: K-562 leukemia
KM12 colon = test system: KM12 colon
LOX IMVI melanoma = test system: LOX IMVI melanoma
M14 melanoma = test system: M14 melanoma
MALME-3M melanoma = test system: MALME-3M melanoma
MCF7 breast = test system: MCF7 breast
MDA-MB-435 = test system: MDA-MB-435
MDA-N = test system: MDA-N
MOLT-4 leukemia = test system: MOLT-4 leukemia
NCI-H226 lung = test system: NCI-H226 lung
NCI-H23 lung = test system: NCI-H23 lung
NCI-H522 lung = test system: NCI-H522 lung
NCI/ADR-RES ovarian = test system: NCI/ADR-RES ovarian
OVCAR-3 ovarian = test system: OVCAR-3 ovarian
OVCAR-4 ovarian = test system: OVCAR-4 ovarian
OVCAR-5 ovarian = test system: OVCAR-5 ovarian
OVCAR-8 ovarian = test system: OVCAR-8 ovarian
PC-3 prostate = test system: PC-3 prostate
RPMI-8226 leukemia = test system: RPMI-8226 leukemia
RXF 393 renal = test system: RXF 393 renal
SF-268 CNS = test system: SF-268 CNS
SF-295 CNS = test system: SF-295 CNS
SF-539 CNS = test system: SF-539 CNS
SK-MEL-2 melanoma = test system: SK-MEL-2 melanoma
SK-MEL-28 melanoma = test system: SK-MEL-28 melanoma
SK-MEL-5 melanoma = test system: SK-MEL-5 melanoma
SK-OV-3 ovarian = test system: SK-OV-3 ovarian
SN12C renal = test system: SN12C renal
SNB-19 CNS = test system: SNB-19 CNS
SNB-75 CNS = test system: SNB-75 CNS
SR leukemia = test system: SR leukemia
SW-620 colon = test system: SW-620 colon
T-47D breast = test system: T-47D breast
UACC-257 melanoma = test system: UACC-257 melanoma
UACC-62 melanoma = test system: UACC-62 melanoma
UO-31 renal = test system: UO-31 renal
NCI-H460 lung = test system: NCI-H460 lung
TK-10 renal = test system: TK-10 renal
U251 CNS = test system: U251 CNS

CCC(=O)Nc1ccc(NCC(=O)Nc2ccc(Cl)cc2)cc1
TGI (786-0 renal): 35.7 µM | TGI (A498 renal): 46 µM | TGI (A549 NSCLC): 56.5 µM | TGI (ACHN renal): 27.9 µM | TGI (BT-549 breast): 48.6 µM | TGI (CAKI-1 renal): 53.7 µM | TGI (CCRF-CEM leukemia): 60.3 µM | TGI (COLO 205 colon): 35.5 µM | TGI (DU-145 prostate): 35.6 µM | TGI (EKVX NSCLC): 28.2 µM | TGI (HCC-2998 colon): 26.7 µM | TGI (HCT-116 colon): 30.4 µM | TGI (HCT-15 colon): 36.4 µM | TGI (HL-60(TB) leukemia): 42.7 µM | TGI (HOP-62 NSCLC): 30.7 µM | TGI (HOP-92 NSCLC): 33.4 µM | TGI (HS 578T breast): > 100 µM | TGI (HT29 colon): 28 µM | TGI (IGROV1 ovarian): 64.4 µM | TGI (K-562 leukemia): > 100 µM | TGI (KM12 colon): 33 µM | TGI (LOX IMVI melanoma): 27.4 µM | TGI (M14 melanoma): 29.3 µM | TGI (MALME-3M melanoma): 34.8 µM | TGI (MCF7 breast): 29.8 µM | TGI (MDA-MB-435): 33.2 µM | TGI (MDA-N): 35.3 µM | TGI (MOLT-4 leukemia): 98.2 µM | TGI (NCI-H226 lung): 53.5 µM | TGI (NCI-H23 lung): 38.9 µM | TGI (NCI-H522 lung): 30.2 µM | TGI (NCI/ADR-RES ovarian): 93.6 µM | TGI (OVCAR-3 ovarian): 33.6 µM | TGI (OVCAR-4 ovarian): 33.3 µM | TGI (OVCAR-5 ovarian): 32.1 µM | TGI (OVCAR-8 ovarian): 94.4 µM | TGI (PC-3 prostate): 31.8 µM | TGI (RPMI-8226 leukemia): 70.3 µM | TGI (RXF 393 renal): 35.6 µM | TGI (SF-268 CNS): 55.4 µM | TGI (SF-295 CNS): > 100 µM | TGI (SF-539 CNS): 36.8 µM | TGI (SK-MEL-2 melanoma): 30.8 µM | TGI (SK-MEL-28 melanoma): 42.6 µM | TGI (SK-MEL-5 melanoma): 30.7 µM | TGI (SK-OV-3 ovarian): 64.1 µM | TGI (SN12C renal): 35.3 µM | TGI (SNB-19 CNS): 42 µM | TGI (SNB-75 CNS): 64.6 µM | TGI (SR leukemia): 94.1 µM | TGI (SW-620 colon): 74.9 µM | TGI (T-47D breast): 29.8 µM | TGI (UACC-257 melanoma): 36.8 µM | TGI (UACC-62 melanoma): 26.6 µM | TGI (UO-31 renal): 78.9 µM

CC(C)(CNC(=O)/C(Cl)=C(/Cl)C(=O)O)CNC(=O)/C(Cl)=C(/Cl)C(=O)O
TGI (786-0 renal): > 100 µM | TGI (A498 renal): > 100 µM | TGI (A549 NSCLC): > 100 µM | TGI (ACHN renal): 60.3 µM | TGI (BT-549 breast): > 100 µM | TGI (CAKI-1 renal): > 100 µM | TGI (CCRF-CEM leukemia): > 100 µM | TGI (COLO 205 colon): 35.6 µM | TGI (DU-145 prostate): > 100 µM | TGI (EKVX NSCLC): > 100 µM | TGI (HCC-2998 colon): > 100 µM | TGI (HCT-116 colon): > 100 µM | TGI (HL-60(TB) leukemia): > 100 µM | TGI (HOP-62 NSCLC): > 100 µM | TGI (HOP-92 NSCLC): > 100 µM | TGI (HS 578T breast): > 100 µM | TGI (HT29 colon): > 100 µM | TGI (IGROV1 ovarian): > 100 µM | TGI (K-562 leukemia): > 100 µM | TGI (KM12 colon): > 100 µM | TGI (LOX IMVI melanoma): > 100 µM | TGI (MCF7 breast): > 100 µM | TGI (MDA-MB-435): > 100 µM | TGI (MDA-N): > 100 µM | TGI (MOLT-4 leukemia): > 100 µM | TGI (NCI-H226 lung): > 100 µM | TGI (NCI-H460 lung): > 100 µM | TGI (NCI-H522 lung): > 100 µM | TGI (NCI/ADR-RES ovarian): > 100 µM | TGI (OVCAR-3 ovarian): > 100 µM | TGI (OVCAR-4 ovarian): > 100 µM | TGI (OVCAR-5 ovarian): > 100 µM | TGI (OVCAR-8 ovarian): > 100 µM | TGI (PC-3 prostate): > 100 µM | TGI (RPMI-8226 leukemia): 76.3 µM | TGI (RXF 393 renal): > 100 µM | TGI (SF-295 CNS): > 100 µM | TGI (SF-539 CNS): > 100 µM | TGI (SK-MEL-2 melanoma): > 100 µM | TGI (SK-MEL-28 melanoma): > 100 µM | TGI (SK-MEL-5 melanoma): > 100 µM | TGI (SK-OV-3 ovarian): > 100 µM | TGI (SNB-19 CNS): > 100 µM | TGI (SNB-75 CNS): > 100 µM | TGI (SR leukemia): > 100 µM | TGI (SW-620 colon): > 100 µM | TGI (T-47D breast): > 100 µM | TGI (TK-10 renal): > 100 µM | TGI (U251 CNS): > 100 µM | TGI (UACC-257 melanoma): > 100 µM | TGI (UACC-62 melanoma): > 100 µM | TGI (UO-31 renal): > 100 µM
